Patent US20240408169A1 (priority 2023, published 2024)
*1 amine or outer side, *2 acyl side, *3 side chain or, on linkers, in order; H or OH if unused. Where a SMILES comes first, the peptide text is derived from it. Bridges are numbered along the chain shown (N, C = ends). [ ]: non-standard residue; d: D form. The star is where a group is joined. X122 = CN([C@@H](Cc1cc(Cl)ccc1C1=CCN(C(=O)C(C)(C)C)CC1)C(=O)[*:2])[*:1]; X119 = CC(=O)N1C2C=C(c3ccc(F)cc3C[C@@H](C(=O)[*:2])N(C)[*:1])CC1COC2; X181 = CN([C@@H](Cc1cc(Cl)ccc1C1=CCN(C(=O)C2CC2)CC1)C(=O)[*:2])[*:1]; NMeAla(5-Cl-2-cPrO-3-pyridyl) = CN[C@@H](Cc1cc(Cl)cnc1OC1CC1)C(=O)O; X167 = CN([C@@H](Cc1cc(F)ccc1C1=CCN(S(C)(=O)=O)CC1)C(=O)[*:2])[*:1]; X137 = CN([C@@H](Cc1cc(F)ccc1-c1cnn(S(C)(=O)=O)c1)C(=O)[*:2])[*:1]; X200 = CN([C@@H](Cc1cc(F)ccc1C1CCN(C(=O)C2CC2)CC1)C(=O)[*:2])[*:1]; X153 = CN([C@@H](Cc1cc(F)ccc1-c1cnn(C2CCOCC2)c1)C(=O)[*:2])[*:1]; X151 = CN([C@@H](Cc1cc(Cl)ccc1-c1cnn(C2CCC2)c1)C(=O)[*:2])[*:1]; X178 = CN([C@@H](Cc1cc(F)ccc1-c1cnn(C2CCOC2)c1)C(=O)[*:2])[*:1]; X208 = CN([C@@H](Cc1cc(F)ccc1-c1cnn(CC(F)F)c1)C(=O)[*:2])[*:1]; X26 = CN([C@@H](Cc1cc(F)ccc1-c1cnn(C2CC2)c1)C(=O)[*:2])[*:1]; NMehhhLys(Me) = CN([C@@H](CCCCCCCN(C)[*:3])C(=O)[*:2])[*:1]; NMe(hhhLys) = CN([C@@H](CCCCCCCN[*:3])C(=O)[*:2])[*:1]; Cyclobutanecarbonyl(1-CF3) = O=C(C1(C(F)(F)F)CCC1)*; cBuCO(3,3-F2-1-CF3) = O=C(C1(C(F)(F)F)CC(F)(F)C1)*; X161 = Cc1ccc(F)cc1C[C@@H](C(=O)[*:2])N(C)[*:1]; Pro(trans-4-F) = O=C(O)[C@@H]1C[C@@H](F)CN1; Gly(cPr) = N[C@H](C(=O)O)C1CC1; X129 = N#CC1(C(=O)*)CCC1

Assays:
CyclinE1/CDK2 = molecular target: T1, CyclinE1/CDK2 (Homo sapiens, UniProt P24864); experiment: Fluorescence Polarization (FP) competitive binding assay, Cyclin E1/Cdk2; conditions: 10 nM Cyclin E1/Cdk2, 2 nM FAM probe; average of 2-3 independent experiments; read-out: Cyclin E FP IC50;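 further: readings taken after two-hour equilibration at room temperature in HEPES buffer with NaCl, DTT, NP-40 and BSA, IC50 fitted from eight-concentration serial dilution series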
T1 construct: purchased Eurofins, discovery 14-475

CyclinB1/CDK1 = molecular target: T2, CyclinB1/CDK1 (Homo sapiens, UniProt P14635); experiment: Fluorescence Polarization (FP) competitive binding assay, Cyclin B1/Cdk1; conditions: 10 nM Cyclin B1/Cdk1, 2 nM FAM probe; average of 2-3 independent experiments; read-out: Cyclin B FP IC50;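 further: fluorescence polarization read after equilibration at room temperature, with IC50 taken from serially diluted dose-response curves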
T2 construct: purchased Eurofins, discovery 14-450

OVCAR3 cells = experiment: MTT proliferation assay, OVCAR3; type: cell-based; conditions: 5 days compound exposure, 1:3 serial dilution starting at 10 μM;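 further: compound given as an 8- or 10-point series, one day after plating, with exposure covering roughly 3-4 cell doublings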
CyclinA2/CDK2 = molecular target: T3, CyclinA2/CDK2 (Homo sapiens, UniProt P20248); experiment: Fluorescence Polarization (FP) competitive binding assay, Cyclin A2/Cdk2; conditions: 8 nM Cyclin A2/Cdk2, 2 nM FAM probe; average of 2-3 independent experiments; read-out: Cyclin A FP IC50;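 further: plates equilibrated two hours at room temperature before polarization reading, IC50 fitted from eight-concentration compound titration curves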
T3 construct: purchased CRELUX Protein Services

NCI-H1048 cells = experiment: MTT proliferation assay, NCI-H1048; type: cell-based; conditions: 5 days compound exposure, 1:3 serial dilution starting at 10 μM;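 further: Dose-response in 96-well plates over 8 or 10 concentration points, with exposure spanning 3-4 cell doublings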

Row | SMILES | IC50 (CyclinE1/CDK2) | IC50 (CyclinB1/CDK1) | GI50 (OVCAR3 cells) | IC50 (CyclinA2/CDK2) | GI50 (NCI-H1048 cells)
1 | CC(C)C[C@@H]1NC(=O)[C@@H](N(C)C(=O)[C@@H](NC(=O)[C@@H]2C[C@@H](F)CN2C(=O)C2(C(F)(F)F)CC(F)(F)C2)C2CC2)CC=CCCCCN(C)C(=O)[C@H](Cc2cc(F)ccc2-c2cnn(S(C)(=O)=O)c2)N(C)C1=O [Example 87] | 890 nM | 20 nM | 60 nM | 180 nM | 50 nM
2 | CC(C)C[C@@H]1NC(=O)[C@@H](N(C)C(=O)[C@@H](NC(=O)[C@@H]2C[C@@H](F)CN2C(=O)C2(C(F)(F)F)CC(F)(F)C2)C2CC2)CC=CCCCCNC(=O)[C@H](Cc2cc(Cl)ccc2C2=CCN(C(=O)C(C)(C)C)CC2)N(C)C1=O [Example 91] | 5730 nM | 20 nM | 260 nM | 100 nM | 230 nM
3 | CC(C)C[C@@H]1NC(=O)[C@@H](N(C)C(=O)[C@@H](NC(=O)[C@@H]2C[C@@H](F)CN2C(=O)C2(C(F)(F)F)CCC2)C2CC2)CCCCCCCN(C)C(=O)[C@H](Cc2cc(F)ccc2-c2cnn(CC(F)F)c2)N(C)C1=O [Example 92] ({Cyclobutanecarbonyl(1-CF3)}-[Pro(trans-4-F)][Gly(cPr)][NMehhhLys(Me)]L[X208]; lactam 3-C) | 100 nM | 20 nM | 10 nM | 20 nM | 10 nM
4 | CC(C)C[C@@H]1NC(=O)[C@@H](N(C)C(=O)[C@@H](NC(=O)[C@@H]2C[C@@H](F)CN2C(=O)C2(C(F)(F)F)CC(F)(F)C2)C2CC2)CCCCCCCN(C)C(=O)[C@H](Cc2cc(F)ccc2-c2cnn(C3CCOCC3)c2)N(C)C1=O [Example 93] ({cBuCO(3,3-F2-1-CF3)}-[Pro(trans-4-F)][Gly(cPr)][NMehhhLys(Me)]L[X153]; lactam 3-C) | 140 nM | 20 nM | 10 nM | 20 nM | 10 nM
5 | CC(C)C[C@@H]1NC(=O)[C@@H](N(C)C(=O)[C@@H](NC(=O)[C@@H]2C[C@@H](F)CN2C(=O)C2(C(F)(F)F)CC(F)(F)C2)C2CC2)CCCCCCCN(C)C(=O)[C@H](Cc2cc(F)ccc2-c2cnn(C3CCOC3)c2)N(C)C1=O (stereo partly drawn) [Example 94] ({cBuCO(3,3-F2-1-CF3)}-[Pro(trans-4-F)][Gly(cPr)][NMehhhLys(Me)]L[X178]; lactam 3-C) | 180 nM | 20 nM | 10 nM | 20 nM | 10 nM
6 | CC(C)C[C@@H]1NC(=O)[C@@H](N(C)C(=O)[C@@H](NC(=O)[C@@H]2C[C@@H](F)CN2C(=O)C2(C(F)(F)F)CC(F)(F)C2)C2CC2)CCCCCCCN(C)C(=O)[C@H](Cc2cc(F)ccc2-c2cnn(S(C)(=O)=O)c2)N(C)C1=O [Example 95] ({cBuCO(3,3-F2-1-CF3)}-[Pro(trans-4-F)][Gly(cPr)][NMehhhLys(Me)]L[X137]; lactam 3-C) | 530 nM | 20 nM | 20 nM | 50 nM | 10 nM
7 | CC(C)C[C@@H]1NC(=O)[C@@H](N(C)C(=O)[C@@H](NC(=O)[C@@H]2C[C@@H](F)CN2C(=O)C2(C(F)(F)F)CC(F)(F)C2)C2CC2)CCCCCCCNC(=O)[C@H](Cc2cc(Cl)ccc2C2=CCN(C(=O)C3CC3)CC2)N(C)C1=O [Example 97] ({cBuCO(3,3-F2-1-CF3)}-[Pro(trans-4-F)][Gly(cPr)][NMe(hhhLys)]L[X181]; lactam 3-C) | 1450 nM | 20 nM | 30 nM | 20 nM | 20 nM
8 | CC(C)C[C@@H]1NC(=O)[C@@H](N(C)C(=O)[C@@H](NC(=O)[C@@H]2C[C@@H](F)CN2C(=O)C2(C(F)(F)F)CC(F)(F)C2)C2CC2)CCCCCCCNC(=O)[C@H](Cc2cc(Cl)ccc2C2=CCN(C(=O)C(C)(C)C)CC2)N(C)C1=O [Example 99] ({cBuCO(3,3-F2-1-CF3)}-[Pro(trans-4-F)][Gly(cPr)][NMe(hhhLys)]L[X122]; lactam 3-C) | 1540 nM | 20 nM | 30 nM | 20 nM | 20 nM
9 | CC(C)C[C@@H]1NC(=O)[C@@H](N(C)C(=O)[C@@H](NC(=O)[C@@H]2C[C@@H](F)CN2C(=O)C2(C(F)(F)F)CC(F)(F)C2)C2CC2)CCCCCCCN(C)C(=O)[C@H](Cc2cc(F)ccc2C2=CCN(S(C)(=O)=O)CC2)N(C)C1=O [Example 100] ({cBuCO(3,3-F2-1-CF3)}-[Pro(trans-4-F)][Gly(cPr)][NMehhhLys(Me)]L[X167]; lactam 3-C) | 450 nM | 20 nM | 20 nM | 20 nM | 20 nM
10 | CC(C)C[C@@H]1NC(=O)[C@@H](N(C)C(=O)[C@@H](NC(=O)[C@@H]2C[C@@H](F)CN2C(=O)C2(C(F)(F)F)CC(F)(F)C2)C2CC2)CCCCCCCN(C)C(=O)[C@H](Cc2cc(F)ccc2C2CCN(C(=O)C3CC3)CC2)N(C)C1=O [Example 101] ({cBuCO(3,3-F2-1-CF3)}-[Pro(trans-4-F)][Gly(cPr)][NMehhhLys(Me)]L[X200]; lactam 3-C) | 470 nM | 20 nM | 30 nM | 30 nM | 20 nM
11 | CC(C)C[C@@H]1NC(=O)[C@@H](N(C)C(=O)[C@@H](NC(=O)[C@@H]2C[C@@H](F)CN2C(=O)C2(C(F)(F)F)CC(F)(F)C2)C2CC2)CCCCCCCNC(=O)[C@H](Cc2cc(Cl)cnc2OC2CC2)N(C)C1=O [Example 103] ({cBuCO(3,3-F2-1-CF3)}-[Pro(trans-4-F)][Gly(cPr)][NMe(hhhLys)]L[NMeAla(5-Cl-2-cPrO-3-pyridyl)]; lactam 3-C) | 350 nM | 20 nM | 50 nM | 60 nM | 30 nM
12 | CC(C)C[C@@H]1NC(=O)[C@@H](N(C)C(=O)[C@@H](NC(=O)[C@@H]2C[C@@H](F)CN2C(=O)C2(C(F)(F)F)CC(F)(F)C2)C2CC2)CC=CCCCCN(C)C(=O)[C@H](Cc2cc(Cl)cnc2OC2CC2)N(C)C1=O [Example 104] | 490 nM | 20 nM | 260 nM | 160 nM | 160 nM
13 | CC(C)C[C@@H]1NC(=O)[C@@H](N(C)C(=O)[C@@H](NC(=O)[C@@H]2C[C@@H](F)CN2C(=O)C2(C(F)(F)F)CCC2)C2CC2)CCCCCCCNC(=O)[C@H](Cc2cc(Cl)cnc2OC2CC2)N(C)C1=O [Example 108] ({Cyclobutanecarbonyl(1-CF3)}-[Pro(trans-4-F)][Gly(cPr)][NMe(hhhLys)]L[NMeAla(5-Cl-2-cPrO-3-pyridyl)]; lactam 3-C) | 180 nM | 20 nM | 30 nM | 50 nM | 20 nM
14 | CC(C)C[C@@H]1NC(=O)[C@@H](N(C)C(=O)[C@@H](NC(=O)[C@@H]2C[C@@H](F)CN2C(=O)C2(C(F)(F)F)CC(F)(F)C2)C2CC2)CCCCCCCN(C)C(=O)[C@H](Cc2cc(Cl)ccc2-c2cnn(C3CCC3)c2)N(C)C1=O [Example 112] ({cBuCO(3,3-F2-1-CF3)}-[Pro(trans-4-F)][Gly(cPr)][NMehhhLys(Me)]L[X151]; lactam 3-C) | 340 nM | 20 nM | 10 nM | 20 nM | 10 nM
15 | Cc1nnc(-c2ccc(Cl)cc2C[C@H]2C(=O)N(C)CCCCC=CC[C@H](N(C)C(=O)[C@@H](NC(=O)[C@@H]3C[C@@H](F)CN3C(=O)C3(C(F)(F)F)CC(F)(F)C3)C3CC3)C(=O)N[C@@H](CC(C)C)C(=O)N2C)o1 [Example 116] | 330 nM | 20 nM | 50 nM | 40 nM | 40 nM
16 | CC(C)C[C@@H]1NC(=O)[C@@H](N(C)C(=O)[C@@H](NC(=O)[C@@H]2C[C@@H](F)CN2C(=O)C2(C#N)CCC2)C2CC2)CCCCCCCN(C)C(=O)[C@H](Cc2cc(F)ccc2-c2cnn(C3CC3)c2)N(C)C1=O [Example 122] (X129-[Pro(trans-4-F)][Gly(cPr)][NMehhhLys(Me)]L[X26]; lactam 3-C) | 100 nM | 20 nM | 50 nM | 20 nM | 50 nM
17 | Cc1ccc(F)cc1C[C@H]1C(=O)N(C)CCCCCCC[C@H](N(C)C(=O)[C@@H](NC(=O)[C@@H]2C[C@@H](F)CN2C(=O)C2(C(F)(F)F)CC(F)(F)C2)C2CC2)C(=O)N[C@@H](CC(C)C)C(=O)N1C [Example 123] ({cBuCO(3,3-F2-1-CF3)}-[Pro(trans-4-F)][Gly(cPr)][NMehhhLys(Me)]L[X161]; lactam 3-C) | 120 nM | 20 nM | 20 nM | 30 nM | 20 nM
18 | CC(=O)N1C2C=C(c3ccc(F)cc3C[C@H]3C(=O)N(C)CCCCCCC[C@H](N(C)C(=O)[C@@H](NC(=O)[C@@H]4C[C@@H](F)CN4C(=O)C4(C(F)(F)F)CC(F)(F)C4)C4CC4)C(=O)N[C@@H](CC(C)C)C(=O)N3C)CC1COC2 (stereo partly drawn) [Example 124] ({cBuCO(3,3-F2-1-CF3)}-[Pro(trans-4-F)][Gly(cPr)][NMehhhLys(Me)]L[X119]; lactam 3-C) | 540 nM | 20 nM | 20 nM | 20 nM | 20 nM
19 | CC(C)C[C@@H]1NC(=O)[C@@H](N(C)C(=O)[C@@H](NC(=O)[C@@H]2C[C@@H](F)CN2C(=O)C2(C(F)(F)F)CC(F)(F)C2)C2CC2)CC=CCCCCNC(=O)[C@H](Cc2cc(F)cnc2OC2CC2)N(C)C1=O [Example 125] | 1140 nM | 20 nM | 550 nM | 1010 nM | 490 nM
20 | CC(C)C[C@@H]1NC(=O)[C@@H](N(C)C(=O)[C@@H](NC(=O)[C@@H]2C[C@@H](F)CN2C(=O)C2(C(F)(F)F)CC(F)(F)C2)C2CC2)CC=CCCCCN(C)C(=O)[C@H](Cc2cc(F)cnc2OC2CC2)N(C)C1=O [Example 126] | 620 nM | 20 nM | 310 nM | 500 nM | 380 nM
